Read-outs that look alike come from different tables or passages of the source.
How the values were obtained:
Format in all cases: cell-based
Rat dopaminergic neurons = experiment: Protective effect after 6-OHDA injury on rat primary dopaminergic neurons survival (TH staining); settings: for cellular death of dopaminergic neurons after 6-OHDA injury: 1 h before and during 2 days of 6-OHDA 20 μM (alone 48%), p<0.001; for rescue of dopaminergic neurons from cell death after 6-OHDA injury: at every concentration tested of 10 μM, 1 μM and 0.1 μM
Procedure: As explained in Ding et al., J Neurochem., 2004, (89), administration of 6-Hydroxydopamine (6-OHDA), a neurotoxin, has been widely used to cause the selective degeneration of dopamine (DA) neurons in in vitro and in vivo models. These models are used as Parkinson's disease models, which is characterized by the progressive loss of DA neurons of the substantia nigra.
Rat dopaminergic neurons were cultured as described by Schinelli et al., J Neurochem., 1988, 50(6). The cells were seeded at a density of 40 000 cells/well in 96 well-plates (precoated with poly-D-lysine; Greiner, Ref: 655940, Batch: E20093UL) and were cultured at 37° C. in a humidified air (95%)/CO2 (5%) atmosphere. Half of the medium was changed every 2 days with fresh medium. In these conditions, after 5 days of culture, astrocytes are present in the culture and release growth factor allowing neurons differentiation. In this condition, 2 to 5% of neurons are dopaminergic neurons.
6-OHDA (Sigma, Ref: 162957, Batch MKCK5243) was reconstituted in define culture medium at 40 μM (stock solution). The control medium was prepared in the same conditions. After 7 days of culture, primary mesencephalic neurons were pre-treated for 1 hour with test compounds or reference compound (BDNF, 50 ng/mL) and then intoxicated with 6-OHDA at a final concentration of 20 μM for 2 days incubation in order to induce a neuronal cell death of about 50%+/−5%.
After 2 days of intoxication in presence or absence of test compounds, cells were fixed by a solution of 4% paraformaldehyde (Sigma, ref 6148, Batch: SZBE2390V) for 20 min at room temperature, the control conditions were fixed as well following the same procedure. The cells were then permeabilized and nonspecific sites were blocked with a solution of phosphate buffered saline (PBS; PanBiotech; ref: P04-36500, Batch: 7701020) containing 0.1% of saponin (Sigma; ref: S7900, Batch: BCBL8667V) and 1% FCS for 15 min at room temperature. Cells were incubated with a mouse monoclonal anti-Tyrosine Hydroxylase (TH, 1/10 000, Sigma; ref: T1299, Batch: 014M4835) antibody in a solution of PBS overnight at 4° C. Antibody against TH stained dopaminergic neurons. […] Nuclei of cells were labelled by a fluorescent marker (Hoechst, Sigma; ref: B1155, Batch: 046M4048V) in the same solution. For each condition, 20 pictures per well were taken using InCell Analyzer™ 2200 (GE Healthcare) with 20× magnification. Images of each culture well were taken in same condition. Analysis of cell bodies of TH positive neurons was performed using Developer software (GE healthcare). A total of 6 data per experimental condition were provided.

[1] = tested on: mouse hippocampal neuronal cell line HT22; experiment: Neurotoxicity and excitotoxicity assay, HT22 cells + glutamate, erastin or RSL3, MTS cell viability; settings: Mus musculus
Procedure: The excitotoxicity model used was the mouse hippocampal neuronal HT22 cells treated with glutamate [Dixon et al., Cell, 2012, 149(5), 1060-1072]. Ferroptosis and oxidative stress are both associated in this glutamate-induced cell death [Chu et al., Neural Regen. Res., 2020, 15(3), 528-536]. Phenotypic screening was also carried out with additional cell death inducers, erastin and RSL3 ((1S,3R)-Ras-selective lethal), in HT22 and SH-SY5Y (human neuroblastoma cells). Erastin and RSL3 are well described molecules, used as chemical tools for the study of ferroptosis regulation and neuronal pathologies [Lewerenz et al., Front. Neurosci., 2018, 12: 214; Reichert et al., Int. J. Mol. Sci., 2020, 21, 8765].
Mouse hippocampal neuronal cell line (HT22, ATCC) and human neuroblastoma cell line (SH-SY5Y, ATCC) were grown in Dulbecco's Modified Eagle Medium (DMEM, Gibco) supplemented with 10% fetal bovine serum (FBS, Gibco) at 37° C. under 5% CO2 atmosphere. Neurotoxicity was induced by erastin or RSL3 and excitotoxicity was induced by glutamate. Cells were seeded in 96-well plates at 5,000 and 10,000 cells/well for HT22 and SH-SY5Y cell lines, respectively. Cells were treated with 0.5-1 μM Erastin (HT22 cells) or 10 μM Erastin (SH-SY5Y cells) or 5-10 mM glutamate (HT22 cells) or 0.5 μM RSL3 (HT22 cells) or 5 μM RSL3 (SH-SY5Y cells) for 24 h in presence of increasing concentrations of inhibitors. Cells treated with DMSO only were used as controls. Cell viability was assessed by MTS assay (CellTiter 96 AQueous One Solution Cell Proliferation assay, Promega).
In FIGS. 1, 2A and 2B, an inhibitor was added to HT22 (FIG. 1: compound 6) or SH-SY5Y (FIG. 2A: compound 6; FIG. 2B: compound 25) cells in the presence or not of cell death inducers (erastin, glutamate or RSL3). […] EC50 values for compounds 1-28 were calculated from dose-response curves using Graphpad Prism software.

[2] = tested on: Primary cultures of porcine RPE; experiment: Cellular model of retinal pigment epithelium (RPE) phototoxicity (A2E + blue light); settings: 10 and 30 μM, A2E 30 μM + blue light, 24 h after induction; FIG. 29
Procedure: Primary cultures of porcine RPE are prepared weekly and run on 96-well culture plates after one week in vitro. The cells are incubated with the molecule 10 minutes before induction of phototoxicity. A2E (30 μM) is added to the culture medium 19 hours before cell illumination by a device equipped with blue light emitting leds (λ=[…]). Cell survival and death are detected 24 hours after induction of phototoxicity by staining cells with Hoechst (a nuclear marker) and ethidium (a marker for dead cell nuclei). Images of each well are acquired on a fluorescence microscope equipped with a motorised stage driven by Metamorph software, and cell survival is quantified by inhouse program. The molecules are tested at 10 and 30 μM unless toxicity at this concentration. The negative control corresponds to cells treated with A2E and vehicle. The positive control corresponds to cells treated with A2E and crocetin (100 μM) 48 h before illumination. The treatments are done in quadruplicate and the experiments are performed 4 times.

[3] = 10 μM (first value of 'respectively')

SMILES | cellular death of dopaminergic neurons after 6-OHDA injury (Rat dopaminergic neurons; [3]) [%] | rescue of dopaminergic neurons from cell death after 6-OHDA injury (Rat dopaminergic neurons) | EC50 ([1]; HT-22, 24 h, read-out: EC50 HT22 Erastin) [µM] | EC50 ([1]; HT-22, 24 h, read-out: EC50 HT22 Glutamate) [µM] | EC50 ([1]; HT-22, 24 h, read-out: EC50 HT22 RSL3) [µM] | cell survival of RPE cells after induction of phototoxicity [2] | cellular death of dopaminergic neurons after 6-OHDA injury (Rat dopaminergic neurons; 1 μM (second value of 'respectively')) [%] | EC50 ([1]; HT-22, HT22 cells, 0.5 μM RSL3, 24 h, MTS, read-out: EC50 HT22 RSL3) [µM] | EC50 ([1]; HT-22, HT22 cells, 0.5-1 μM Erastin, 24 h, MTS, read-out: EC50 HT22 Erastin) [µM] | EC50 ([1]; HT-22, HT22 cells, 5-10 mM glutamate, 24 h, MTS, read-out: EC50 HT22 Glutamate) [µM]
Oc1ccc(-c2cc3ccccc3[nH]2)cc1 [Compound 1, 4-(1H-indol-2-yl)phenol] | 25 | partially and significantly rescue | 2.9 | 2.55 | 3.27 | protect RPE cells significantly against phototoxicity |  |  |  | 
Oc1ccc(-c2cc3cccnc3[nH]2)cc1 [Compound 7, 4-(1H-pyrrolo[2,3-b]pyridin-2-yl)phenol] | 16 | partially and significantly rescue |  |  |  |  | 24 | 14.6 | > 25 | > 25

From patent US20240116923A1, “USE OF INDOLE, 6- AND 7-AZAINDOLE DERIVATIVES AS INHIBITORS OF FERROPTOSIS REGULATED CELL DEATH” (Seabelife, priority 2021, published 2024)
